The target in one test is T1, K-Ras G12D (Homo sapiens, UniProt P01116, G12D).
T1 construct: made in house; host or cells: E. coli BL21 (DE3)
In words: HTRF resonance energy transfer assay, K-Ras G12D / SOS1 interaction. It counts as biochemical. To be noted: HTRF assay of Example 5; read-out: IC50 against K-Ras G12D. Summed up:
(§1)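 Read-out: HTRF 665/620 nm ratio (excitation 337 nm) after roughly 10 min or longer incubation, used to derive IC50. Donor anti-GST-Eu on GST-K-Ras; acceptor anti-6His-XL665 on His-hSOS1. Duplicate dose series from 10 μM down to 0.01 μM.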
For orientation: In TR-FRET formats the signal depends on donor and acceptor labels being close together.

The next test relates to SW620 cells. In words: Ras cellular assay, growth of cells with K-Ras G12V mutation (CellTiter-Glo). The class given is cell-based. To be noted: Homo sapiens, SW-620; cell growth, Example 9, G12V mutation; read-out: IC50 against SW620 cells. Summed up:
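SW620 (K-Ras G12V) cells, e.g. 800/well in RPMI-1640 with 10% heat-inactivated FBS on standard or ultra-low attachment plates, were dosed the day after plating with e.g. a 10-point 3-fold series. Viability by CellTiter-Glo luminescence about 6 days later; IC50 from four-parameter fit.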

The next test deals with T2, K-Ras G12V (Homo sapiens, UniProt P01116, G12V).
T2 construct: made in house; host or cells: E. coli BL21 (DE3)
In words: HTRF resonance energy transfer assay, K-Ras G12V / SOS1 interaction. It counts as biochemical. The settings on record: HTRF assay of Example 5; read-out: IC50 against K-Ras G12V. In short, it runs like this:
as §1

Another test has as its system A549 cells. In words: Ras cellular assay, growth of cells with K-Ras G12S mutation (CellTiter-Glo). The class given is cell-based. The settings on record: Homo sapiens, cell growth, Example 9, G12S mutation, read-out: IC50 against A549 cells. As to the method: For example, this assay can be also used to assess a selective growth inhibition of a mutant Ras protein relative to a wildtype, or relative to a different mutant Ras protein.
A549 (ATCC CCL-185) and LS123 (ATCC CCL-255) cell lines comprise a G12S mutation and can be used to assess Ras cellular signaling in vitro, e.g., in response to the compounds herein. A549 culture medium is prepared with RPMI-1640 and 10% heat-inactivated FBS. LS123 culture medium is prepared with RPMI-1640 and 10% heat-inactivated FBS. A CellTiter-Glo (CTG) luminescent based assay (Promega) is used to assess growth of the cells, as a measurement of the ability of the compounds herein to inhibit Ras signaling in the cells. The cells (e.g., 800 per well) are seeded in their respective culture medium in standard tissue culture-treated 384-well format plates (Falcon #08-772-116) or ultra-low attachment surface 384-well format plates (S-Bio #MS-9384WZ). The day after plating, cells are treated with a dilution series (e.g., a 10 point 3-fold dilution series) of the compounds herein (e.g., approximately 40 μL final volume per well). Cell viability can be monitored (e.g., approximately 6 days later) according to the manufacturer's recommended instructions, where the CellTiter-Glo reagent is added (e.g., approximately 10 μL), vigorously mixed, covered, and placed on a plate shaker (e.g., approximately for 20 min) to ensure sufficient cell lysis prior to assessment of luminescent signal. The IC50 values are determined using the four parameter fit. The resulting IC50 value is a measurement of the ability of the compounds herein to reduce cell growth of Ras-driven cells (e.g., tumor cell lines) in vitro and/or in vivo.

The target of a further test is T3, K-Ras G12S (Homo sapiens, UniProt P01116, G12S).
T3 construct: made in house; host or cells: E. coli BL21 (DE3)
In words: HTRF resonance energy transfer assay, K-Ras G12S / SOS1 interaction. It counts as biochemical. To be noted: HTRF assay of Example 5; read-out: IC50 against K-Ras G12S. In short, it runs like this: as §1

The target in a further test is T4, K-Ras WT (Homo sapiens, UniProt P01116).
T4 construct: made in house; host or cells: E. coli BL21 (DE3)
In words: HTRF resonance energy transfer assay, K-Ras WT / SOS1 interaction. The class given is biochemical. To be noted: HTRF assay of Example 5; read-out: IC50 against K-Ras WT. Summed up: as §1

Molecules are shown by their SMILES. Some results are limits rather than exact numbers.

T2 sequence (P01116 1-188 isoform P01116-2 G12V): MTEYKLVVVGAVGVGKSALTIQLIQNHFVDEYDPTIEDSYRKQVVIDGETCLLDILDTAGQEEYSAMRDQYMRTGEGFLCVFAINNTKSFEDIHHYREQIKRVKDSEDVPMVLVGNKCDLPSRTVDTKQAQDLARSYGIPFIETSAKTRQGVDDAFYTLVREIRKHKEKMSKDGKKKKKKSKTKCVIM
T3 sequence (P01116 1-188 isoform P01116-2 G12S): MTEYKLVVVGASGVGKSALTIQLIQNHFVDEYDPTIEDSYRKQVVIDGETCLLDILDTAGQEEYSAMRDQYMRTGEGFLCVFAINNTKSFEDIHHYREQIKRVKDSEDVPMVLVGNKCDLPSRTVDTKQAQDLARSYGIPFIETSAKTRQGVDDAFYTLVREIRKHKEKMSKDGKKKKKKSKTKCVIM
T4 sequence (P01116 1-188 isoform P01116-2): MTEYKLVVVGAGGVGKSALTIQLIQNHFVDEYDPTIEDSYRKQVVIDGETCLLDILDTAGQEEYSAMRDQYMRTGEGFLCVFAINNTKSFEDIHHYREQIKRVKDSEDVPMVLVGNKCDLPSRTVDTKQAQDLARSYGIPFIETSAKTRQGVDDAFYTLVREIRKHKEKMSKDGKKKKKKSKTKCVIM
T1 sequence (P01116 1-188 isoform P01116-2 G12D): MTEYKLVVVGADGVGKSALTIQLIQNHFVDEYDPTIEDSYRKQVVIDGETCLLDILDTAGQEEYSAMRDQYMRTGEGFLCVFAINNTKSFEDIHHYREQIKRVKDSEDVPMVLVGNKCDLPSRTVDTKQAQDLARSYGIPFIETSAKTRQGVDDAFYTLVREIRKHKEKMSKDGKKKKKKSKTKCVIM

In general, IC50 refers to the concentration that inhibits the measured activity by half. Regarding `N#Cc1c(N)sc2c(F)ccc(-c3c(Cl)c4c5c(nc(OC[C@@]67CCCN6C[C@H](F)C7)nc5c3F)N(C3CCCN(C=O)CC3)CCO4)c12` (stereo partly drawn) [Compound 601, 2-amino-4-(8-chloro-10-fluoro-2-(((2R,7aS)-2-fluorotetrahydro-1H-pyrrolizin-7a(5H)-yl)methoxy)-4-(1-formylazepan-4-yl)-5,6-dihydro-4H-[1,4]oxazepino[5,6,7-de]quinazolin-9-yl)-7-fluorobenzo[b]thiophene-3-carbonitrile], the IC50 on K-Ras G12D is < 100 nM; in the test on SW620 cells, < 5000 nM; at K-Ras G12V it was < 100 nM; in the test on A549 cells, < 5000 nM; at K-Ras G12S, < 100 nM; at K-Ras WT, < 100 nM.

`CC1(C)CCC(N2CCOc3c(Cl)c(-c4ccc(F)c5sc(N)c(C#N)c45)c(F)c4nc(OC[C@@]56CCCN5C[C@H](F)C6)nc2c34)CO1` (stereo partly drawn) [Compound 603, 2-amino-4-(8-chloro-4-(6,6-dimethyltetrahydro-2H-pyran-3-yl)-10-fluoro-2-(((2R,7aS)-2-fluorotetrahydro-1H-pyrrolizin-7a(5H)-yl)methoxy)-5,6-dihydro-4H-[1,4]oxazepino[5,6,7-de]quinazolin-9-yl)-7-fluorobenzo[b]thiophene-3-carbonitrile]: the IC50 at K-Ras G12D was < 100 nM; with SW620 cells, < 5000 nM; at K-Ras G12V it was < 100 nM; in the test on A549 cells, < 5000 nM; at K-Ras G12S, < 100 nM; at K-Ras WT it was < 100 nM.

For `CC(=O)NC1CC(N2CCOc3c(Cl)c(-c4ccc(F)c5sc(N)c(C#N)c45)c(F)c4nc(OC[C@@]56CCCN5C[C@H](F)C6)nc2c34)C1` (stereo partly drawn) [Compound 623, N-(3-(9-(2-amino-3-cyano-7-fluorobenzo[b]thiophen-4-yl)-8-chloro-10-fluoro-2-(((2R,7aS)-2-fluorotetrahydro-1H-pyrrolizin-7a(5H)-yl)methoxy)-5,6-dihydro-4H-[1,4]oxazepino[5,6,7-de]quinazolin-4-yl)cyclobutyl)acetamide], the IC50 on K-Ras G12D was < 100 nM; with SW620 cells, < 5000 nM; at K-Ras G12V it was < 100 nM; in the test with A549 cells it was < 5000 nM; at K-Ras G12S, < 100 nM; on K-Ras WT it was < 100 nM.

Consider `N#CCC(=O)N1CCC(N2CCOc3c(Cl)c(-c4ccc(F)c5sc(N)c(C#N)c45)c(F)c4nc(OC[C@@]56CCCN5C[C@H](F)C6)nc2c34)C1` (stereo partly drawn) [Compound 626, 2-amino-4-(8-chloro-4-(1-(2-cyanoacetyl)pyrrolidin-3-yl)-10-fluoro-2-(((2R,7aS)-2-fluorotetrahydro-1H-pyrrolizin-7a(5H)-yl)methoxy)-5,6-dihydro-4H-[1,4]oxazepino[5,6,7-de]quinazolin-9-yl)-7-fluorobenzo[b]thiophene-3-carbonitrile], for which the IC50 at K-Ras G12D is < 100 nM; in the test with SW620 cells, < 5000 nM; at K-Ras G12V it was < 100 nM; with A549 cells, < 5000 nM; on K-Ras G12S, < 100 nM; at K-Ras WT it was < 100 nM.

In the case of `N#Cc1c(N)sc2c(F)ccc(-c3c(Cl)c4c5c(nc(OC[C@@]67CCCN6C[C@H](F)C7)nc5c3F)N(C3CCCOCC3)CCO4)c12` (stereo partly drawn) [Compound 638, 2-amino-4-(8-chloro-10-fluoro-2-(((2R,7aS)-2-fluorotetrahydro-1H-pyrrolizin-7a(5H)-yl)methoxy)-4-(oxepan-4-yl)-5,6-dihydro-4H-[1,4]oxazepino[5,6,7-de]quinazolin-9-yl)-7-fluorobenzo[b]thiophene-3-carbonitrile], the IC50 on K-Ras G12D was < 100 nM; in the test with SW620 cells it was < 5000 nM; at K-Ras G12V it was < 100 nM; in the test on A549 cells, < 5000 nM; at K-Ras G12S it was < 100 nM; at K-Ras WT it was < 100 nM.

For `N#Cc1c(N)sc2c(F)ccc(-c3c(Cl)c4c5c(nc(OC[C@@]67CCCN6C[C@H](F)C7)nc5c3F)N(C3CCCC3)CCO4)c12` [Compound 639, 2-amino-4-(8-chloro-4-cyclopentyl-10-fluoro-2-(((2R,7aS)-2-fluorotetrahydro-1H-pyrrolizin-7a(5H)-yl)methoxy)-5,6-dihydro-4H-[1,4]oxazepino[5,6,7-de]quinazolin-9-yl)-7-fluorobenzo[b]thiophene-3-carbonitrile], the IC50 was < 100 nM at K-Ras G12D; < 5000 nM with SW620 cells; < 100 nM on K-Ras G12V; < 5000 nM with A549 cells; < 100 nM at K-Ras G12S; < 100 nM at K-Ras WT.

Regarding `N#Cc1c(N)sc2c(F)ccc(-c3c(Cl)c4c5c(nc(OC[C@@]67CCCN6C[C@H](F)C7)nc5c3F)N(C3CCCN(C(=O)[C@@H]5N[C@H]5C5CC5)C3)CCO4)c12` (stereo partly drawn) [Compound 643, 2-amino-4-(8-chloro-4-(1-((2R,3S)-3-cyclopropylaziridine-2-carbonyl)piperidin-3-yl)-10-fluoro-2-(((2R,7aS)-2-fluorotetrahydro-1H-pyrrolizin-7a(5H)-yl)methoxy)-5,6-dihydro-4H-[1,4]oxazepino[5,6,7-de]quinazolin-9-yl)-7-fluorobenzo[b]thiophene-3-carbonitrile], the IC50 at K-Ras G12D is < 100 nM; in the test on SW620 cells it was < 5000 nM; at K-Ras G12V, < 100 nM; in the test with A549 cells it was < 5000 nM; at K-Ras G12S it was < 100 nM; on K-Ras WT, < 100 nM.

Turning to `CC(O)C1C(C)Oc2c(Cl)c(-c3ccc(F)c4sc(N)c(C#N)c34)c(F)c3nc(OC[C@@]45CCCN4C[C@H](F)C5)nc(c23)N1CC(F)F` (stereo partly drawn) [Compound 646, 2-amino-4-(8-chloro-4-(2,2-difluoroethyl)-10-fluoro-2-(((2R,7aS)-2-fluorotetrahydro-1H-pyrrolizin-7a(5H)-yl)methoxy)-5-(1-hydroxyethyl)-6-methyl-5,6-dihydro-4H-[1,4]oxazepino[5,6,7-de]quinazolin-9-yl)-7-fluorobenzo[b]thiophene-3-carbonitrile], the IC50 was < 100 nM at K-Ras G12D; < 5000 nM in the test on SW620 cells; < 100 nM at K-Ras G12V; < 5000 nM in the test on A549 cells; < 100 nM at K-Ras G12S; < 100 nM at K-Ras WT.

Regarding `C[C@H]1CN(C23CC(C2)C3)c2nc(OC[C@@]34CCCN3C[C@H](F)C4)nc3c(F)c(-c4ccc(F)c5sc(N)c(C#N)c45)c(Cl)c(c23)O1` [Compound 687, 2-amino-4-((6S)-4-(bicyclo[1.1.1]pentan-1-yl)-8-chloro-10-fluoro-2-(((2R,7aS)-2-fluorotetrahydro-1H-pyrrolizin-7a(5H)-yl)methoxy)-6-methyl-5,6-dihydro-4H-[1,4]oxazepino[5,6,7-de]quinazolin-9-yl)-7-fluorobenzo[b]thiophene-3-carbonitrile], the IC50 on K-Ras G12D is < 100 nM; with SW620 cells it was < 5000 nM; with A549 cells it was < 5000 nM; on K-Ras G12S, < 100 nM; on K-Ras WT, < 100 nM.

On to `N#Cc1c(N)sc2c(F)ccc(-c3c(Cl)c4c5c(nc(OC[C@@]67CCCN6C[C@H](F)C7)nc5c3F)N(C3CC(NC(=O)C(F)Cl)C3)CCO4)c12` (stereo partly drawn) [Compound 724, N-(3-(9-(2-amino-3-cyano-7-fluorobenzo[b]thiophen-4-yl)-8-chloro-10-fluoro-2-(((2R,7aS)-2-fluorotetrahydro-1H-pyrrolizin-7a(5H)-yl)methoxy)-5,6-dihydro-4H-[1,4]oxazepino[5,6,7-de]quinazolin-4-yl)cyclobutyl)-2-chloro-2-fluoroacetamide], for which the IC50 at K-Ras G12D is < 100 nM; in the test on SW620 cells, < 5000 nM; in the test on A549 cells it was < 5000 nM; on K-Ras G12S it was < 100 nM; at K-Ras WT, < 100 nM.

(Values after patent US12209102B2, “Heterocyclic compounds and uses thereof” (Kumquat Biosciences Inc., priority 2022, dated 2025).)
